This passage reports IC50 results from patent US8815881B2 (Hoffmann-La Roche Inc., priority 2010, dated 2014).

The test deals with endogenous cellular BACE2 in the Ins1e rat cell line (Rattus norvegicus (Rat), UniProt Q6IE75). Nature of the test: Assay for BACE inhibition by measuring cellular TMEM27 cleavage (ELISA of shed hTMEM27 from INS-TMEM27 cells). It counts as cell-based. The following applies: assay a): cellular TMEM27 cleavage, INS-TMEM27 cells (superscript a). In outline:
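INS1e-derived cells with doxycycline-inducible (TetOn) full-length human TMEM27 get inhibitor 2 h before 500 ng/ml doxycycline, then 46 h further culture at 37 °C. Shed TMEM27 in supernatant measured by sandwich ELISA (anti-extracellular-domain antibodies); EC50 from concentration-response curve fit.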

Structures can show the parent of a compound that is named as a salt.

Chain of endogenous cellular BACE2 in the Ins1e rat cell line (Q6IE75 63-514): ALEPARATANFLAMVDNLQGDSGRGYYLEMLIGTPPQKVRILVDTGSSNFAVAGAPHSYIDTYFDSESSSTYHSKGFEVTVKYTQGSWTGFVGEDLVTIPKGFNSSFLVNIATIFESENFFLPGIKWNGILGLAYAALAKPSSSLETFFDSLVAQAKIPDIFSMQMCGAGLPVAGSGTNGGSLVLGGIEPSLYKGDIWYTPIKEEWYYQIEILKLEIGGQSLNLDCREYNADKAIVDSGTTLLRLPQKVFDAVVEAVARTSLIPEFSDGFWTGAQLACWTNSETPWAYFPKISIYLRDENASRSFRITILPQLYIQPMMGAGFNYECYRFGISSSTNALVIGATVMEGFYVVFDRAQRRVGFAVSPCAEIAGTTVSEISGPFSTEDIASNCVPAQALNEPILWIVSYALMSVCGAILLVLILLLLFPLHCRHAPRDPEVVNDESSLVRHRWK

As a reminder, the IC50 is the concentration at which inhibition is half-maximal. Higher therefore signals weaker potency. In turn, `Cc1nc(C(C)Nc2ccc(F)c([C@@]3(C)N=C(N)N(C)C(=O)C3(C)C)c2)c(C(F)(F)F)o1` (stereo partly drawn) [Example 159, (S)-2-Amino-6-{2-fluoro-5-[1-(2-methyl-5-trifluoromethyl-oxazol-4-yl)-ethylamino]-phenyl}-3,5,5,6-tetramethyl-5,6-dihydro-3H-pyrimidin-4-one] came in with an IC50 of 24 nM. To `COc1ccc(Nc2ccc(F)c([C@@]3(C)N=C(N)N(C)C(=O)C3(C)C)c2)cc1` [Example 72, (S)-2-Amino-6-(2-fluoro-5-(4-methoxyphenylamino)phenyl)-3,5,5,6-tetramethyl-5,6-dihydropyrimidin-4(3H)-one] belongs 201 nM; to `CN1C(=O)C(C)(C)[C@@](C)(c2cc(Nc3ccccc3OC(F)F)ccc2F)N=C1N` [Example 73, (S)-2-Amino-6-(5-(2-(difluoromethoxy)phenylamino)-2-fluorophenyl)-3,5,5,6-tetramethyl-5,6-dihydropyrimidin-4(3H)-one], 135 nM; to `Cc1cc(C(C)Nc2ccc(F)c([C@@]3(C)N=C(N)N(C)C(=O)C3(C)C)c2)[nH]n1` (stereo partly drawn) [Example 125, (S)-2-Amino-6-{2-fluoro-5-[1-(5-methyl-2H-pyrazol-3-yl)-ethylamino]-phenyl}-3,5,5,6-tetramethyl-5,6-dihydro-3H-pyrimidin-4-one], 28 nM.

Molecule `CN1C(=O)C(C)(C)[C@@](C)(c2cc(Nc3ccnn3C)ccc2F)N=C1N` [Example 36, (S)-2-Amino-6-[2-fluoro-5-(2-methyl-2H-pyrazol-3-ylamino)-phenyl]-3,5,5,6-tetramethyl-5,6-dihydro-3H-pyrimidin-4-one] displayed an IC50 of 535 nM.

In the case of `CN1C(=O)C(C)(C)[C@@](C)(c2cc(NC(=O)C3(C(F)(F)F)CC3)ccc2F)N=C1N` [Example 5, 1-Trifluoromethyl-cyclopropanecarboxylic acid [3-((S)-2-amino-1,4,5,5-tetramethyl-6-oxo-1,4,5,6-tetrahydro-pyrimidin-4-yl)-4-fluoro-phenyl]-amide], 11 nM corresponded to half-maximal inhibition (IC50). Take `CN1C(=O)C(C)(C)[C@@](C)(c2cc(NC(=O)C3(O)CCC3)ccc2F)N=C1N` [Example 147, (S)—N-(3-(2-amino-1,4,5,5-tetramethyl-6-oxo-1,4,5,6-tetrahydropyrimidin-4-yl)-4-fluorophenyl)-1-hydroxycyclobutanecarboxamide]: the IC50 amounted to 269 nM. In the case of `CN1C(=O)C(C)(C)[C@@](C)(c2cc(NC(=O)C(C)(O)c3ccc(Cl)cc3)ccc2F)N=C1N` (stereo partly drawn) [Example 141, N-[3-((S)-2-Amino-1,4,5,5-tetramethyl-6-oxo-1,4,5,6-tetrahydro-pyrimidin-4-yl)-4-fluoro-phenyl]-2-(4-chloro-phenyl)-2-hydroxy-propionamide], the IC50 amounted to 332 nM. Under `CN1C(=O)C(C)(C)[C@@](C)(c2cc(NC3CCN(c4ccc(F)cc4)C3)ccc2F)N=C1N` (stereo partly drawn) [Example 31, (6S)-2-Amino-6-(2-fluoro-5-(1-(4-fluorophenyl)pyrrolidin-3-ylamino)phenyl)-3,5,5,6-tetramethyl-5,6-dihydropyrimidin-4(3H)-one] stands 37 nM; under `CC(Nc1ccc(F)c([C@@]2(C)N=C(N)N(C)C(=O)C2(C)C)c1)c1ccccc1` (stereo partly drawn) [Example 38, (S)-2-Amino-6-[2-fluoro-5-(1-phenyl-ethylamino)-phenyl]-3,5,5,6-tetramethyl-5,6-dihydro-3H-pyrimidin-4-one], 48 nM.

`COc1cccc(Nc2ccc(F)c([C@@]3(C)N=C(N)N(C)C(=O)C3(C)C)c2)c1` [Example 79, (S)-2-Amino-6-(2-fluoro-5-(3-methoxyphenylamino)phenyl)-3,5,5,6-tetramethyl-5,6-dihydropyrimidin-4(3H)-one] gave a 50% inhibitory concentration (IC50) of 44 nM. Under `CC1OCCC1Nc1ccc(F)c([C@@]2(C)N=C(N)N(C)C(=O)C2(C)C)c1` (stereo partly drawn) [Example 34, (6S)-2-Amino-6-(2-fluoro-5-(2-methyltetrahydrofuran-3-ylamino)phenyl)-3,5,5,6-tetramethyl-5,6-dihydropyrimidin-4(3H)-one] stands 8 nM. Under `CN1C(=O)C(C)(C)[C@@](C)(c2cc(NC3CCC(CC(=O)O)C3(C)C)ccc2F)N=C1N` (stereo partly drawn) [Example 116, 2-(3-(3-((S)-2-Amino-1,4,5,5-tetramethyl-6-oxo-1,4,5,6-tetrahydropyrimidin-4-yl)-4-fluorophenylamino)-2,2-dimethylcyclopentyl)acetic acid] stands 2160 nM; under `Cc1ncsc1CNc1ccc(F)c([C@@]2(C)N=C(N)N(C)C(=O)C2(C)C)c1` [Example 78, (S)-2-Amino-6-{2-fluoro-5-[(4-methyl-thiazol-5-ylmethyl)-amino]-phenyl}-3,5,5,6-tetramethyl-5,6-dihydro-3H-pyrimidin-4-one], 156 nM; under `COc1ccc(F)cc1Nc1ccc(F)c([C@@]2(C)N=C(N)N(C)C(=O)C2(C)C)c1` [Example 84, (S)-2-Amino-6-(2-fluoro-5-(5-fluoro-2-methoxyphenylamino)phenyl)-3,5,5,6-tetramethyl-5,6-dihydropyrimidin-4(3H)-one], 69 nM. Under `CN1C(=O)C(C)(C)[C@@](C)(c2cc(NCC3CCC3)ccc2F)N=C1N` [Example 70, (S)-2-Amino-6-[5-(C-cyclobutylmethyl-amino)-2-fluoro-phenyl]-3,5,5,6-tetramethyl-5,6-dihydro-3H-pyrimidin-4-one] stands 16 nM. Molecule `CC(Nc1ccc(F)c([C@@]2(C)N=C(N)N(C)C(=O)C2(C)C)c1)c1nc2ccccc2s1` (stereo partly drawn) [Example 127, (S)-2-Amino-6-[5-(1-benzothiazol-2-yl-ethylamino)-2-fluoro-phenyl]-3,5,5,6-tetramethyl-5,6-dihydro-3H-pyrimidin-4-one] returned an IC50 of 73 nM. To `CN1C(=O)C(C)(C)[C@@](C)(c2cc(Nc3ccnn3Cc3ccccc3)ccc2F)N=C1N` [Example 107, (S)-2-Amino-6-(5-(1-benzyl-1H-pyrazol-5-ylamino)-2-fluorophenyl)-3,5,5,6-tetramethyl-5,6-dihydropyrimidin-4(3H)-one] belongs 2 nM; to `CN1C(=O)C(C)(C)[C@@](C)(c2cc(NC(=O)C(C)(O)c3ccccc3)ccc2F)N=C1N` (stereo partly drawn) [Example 139, N-[3-((S)-2-Amino-1,4,5,5-tetramethyl-6-oxo-1,4,5,6-tetrahydro-pyrimidin-4-yl)-4-fluoro-phenyl]-2-hydroxy-2-phenyl-propionamide], 31 nM; to `CN1C(=O)C(C)(C)[C@@](C)(c2cc(Nc3ccn[nH]3)ccc2F)N=C1N` [Example 124, (S)-6-(5-(1H-Pyrazol-5-ylamino)-2-fluorophenyl)-2-amino-3,5,5,6-tetramethyl-5,6-dihydropyrimidin-4(3H)-one hydrochloride], 589 nM. Under `CN1C(=O)C(C)(C)[C@@](C)(c2cc(NC3CCc4cccc(F)c43)ccc2F)N=C1N` (stereo partly drawn) [Example 63, (6S)-2-Amino-6-(2-fluoro-5-(7-fluoro-2,3-dihydro-1H-inden-1-ylamino)phenyl)-3,5,5,6-tetramethyl-5,6-dihydropyrimidin-4(3H)-one] stands 21 nM; under `CN1C(=O)C(C)(C)[C@@](C)(c2cc(Nc3cccc4c3OC(C)(C)C4)ccc2F)N=C1N` [Example 156, (S)-2-Amino-6-(5-(2,2-dimethyl-2,3-dihydrobenzofuran-7-ylamino)-2-fluorophenyl)-3,5,5,6-tetramethyl-5,6-dihydropyrimidin-4(3H)-one], 1210 nM; under `COC(=O)c1ccc(Nc2ccc(F)c([C@@]3(C)N=C(N)N(C)C(=O)C3(C)C)c2)c(OC)c1` [Example 123, (S)-Methyl-4-(3-(2-amino-1,4,5,5-tetramethyl-6-oxo-1,4,5,6-tetrahydropyrimidin-4-yl)-4-fluorophenylamino)-3-methoxybenzoate], 46 nM.

`COC(F)(C(=O)Nc1ccc(F)c([C@@]2(C)N=C(N)N(C)C(=O)C2(C)C)c1)C(F)(F)F` (stereo partly drawn) [Example 20, N-(3-((S)-2-Amino-1,4,5,5-tetramethyl-6-oxo-1,4,5,6-tetrahydropyrimidin-4-yl)-4-fluorophenyl)-2,3,3,3-tetrafluoro-2-methoxypropanamide]: the IC50 worked out at 66 nM. Under `CN1C(=O)C(C)(C)[C@@](C)(c2cc(NC3CC(C)(C)CC3O)ccc2F)N=C1N` (stereo partly drawn) [Example 158, (S)-2-Amino-6-[2-fluoro-5-(2-hydroxy-4,4-dimethyl-cyclopentylamino)-phenyl]-3,5,5,6-tetramethyl-5,6-dihydro-3H-pyrimidin-4-one] stands 298 nM.

As for `COc1ccccc1Nc1ccc(F)c([C@@]2(C)N=C(N)N(C)C(=O)C2(C)C)c1` [Example 56, (S)-2-Amino-6-(2-fluoro-5-(2-methoxyphenylamino)phenyl)-3,5,5,6-tetramethyl-5,6-dihydropyrimidin-4(3H)-one], the IC50 was found to be 15 nM. Under `CN1C(=O)C(C)(C)[C@@](C)(c2cc(NCC3CC3)ccc2F)N=C1N` [Example 52, (S)-2-Amino-6-(5-(C-cyclopropylmethylamino)-2-fluorophenyl)-3,5,5,6-tetramethyl-5,6-dihydropyrimidin-4(3H)-one] stands 7 nM; under `CC(CNc1ccc(F)c([C@@]2(C)N=C(N)N(C)C(=O)C2(C)C)c1)C(F)(F)F` (stereo partly drawn) [Example 83, (S)-2-Amino-6-[2-fluoro-5-(3,3,3-trifluoro-2-methyl-propylamino)-phenyl]-3,5,5,6-tetramethyl-5,6-dihydro-3H-pyrimidin-4-one], 12 nM. For `CN1C(=O)C(C)(C)[C@@](C)(c2cc(NCCC(F)(F)F)ccc2F)N=C1N` [Example 54, (S)-2-Amino-6-(2-fluoro-5-(3,3,3-trifluoropropylamino)phenyl)-3,5,5,6-tetramethyl-5,6-dihydropyrimidin-4(3H)-one], inhibition was half-maximal at 76 nM (IC50). Turning to `CN1C(=O)C(C)(C)[C@@](C)(c2cc(NC3CCCOC3)ccc2F)N=C1N` (stereo partly drawn) [Example 45, (S)-2-Amino-6-[2-fluoro-5-(tetrahydro-pyran-3-ylamino)-phenyl]-3,5,5,6-tetramethyl-5,6-dihydro-3H-pyrimidin-4-one], 11 nM corresponded to half-maximal inhibition (IC50).
